The numbers were not newly measured in patent publication US6790668B1, “Monitoring patient compliance and bioavailability of drugs by deproteinizing body fluids” (Fundacao Oswaldo Cruz - Fiocruz, priority 1998, dated 2004), which cites them from elsewhere.

SMILES strings stand for the structures.

For data set [1] the following is noted: human body; the rest by the kidneys.
For data set [2] the following is noted: organic solvents; acid pH water.

For the molecule `CO[C@H]1/C=C/O[C@@]2(C)Oc3c(C)c(O)c4c(O)c(c(/C=N/N5CCN(C)CC5)c(O)c4c3C2=O)NC(=O)/C(C)=C\C=C\[C@H](C)[C@H](O)[C@@H](C)[C@@H](O)[C@@H](C)[C@H](OC(C)=O)[C@@H]1C` [rifampicin], the “Share of the drug eliminated in the bile” value in data set [1] was “about 80%”. In data set [2], the Solubility result was “soluble both in organic solvents and in acid pH water”.
